Assay results as given in the supplement of paper PMC10307832.

Assays:
Assay in all cases: relative viability (nuclei count vs DMSO), 5 days (fraction); higher = more cells survive
Sulindac + Linsitinib = compound: CC1=C(CC(=O)O)c2cc(F)ccc2/C1=C\c1ccc([S+](C)[O-])cc1 [Sulindac] + C[C@]1(O)C[C@@H](c2nc(-c3ccc4ccc(-c5ccccc5)nc4c3)c3c(N)nccn32)C1 [Linsitinib] (partner 1 µM)
Procedure, shortened: (§1)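 Lung cancer cell lines in 1536-well plates were dosed by pin tool the day after seeding, either with one drug alone or with a fixed anchor-drug dose plus five library-drug doses (not always all listed) in √10 steps. After 5 days, cells were fixed and their nuclei stained in one step (final 0.05% Triton X-100, 1% formaldehyde, 1 ug/ml Hoechst), then counted on 4× images. Relative viability is the nuclei count in treated wells divided by that in vehicle wells. Values are medians of duplicate plates.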

[1] = compound: CN[C@@H]1C[C@H]2O[C@@](C)([C@@H]1OC)n1c3ccccc3c3c4c(c5c6ccccc6n2c5c31)C(=O)NC4 [Staurosporine] + CC1(C)CCC(c2ccc(Cl)cc2)=C(CN2CCN(c3ccc(C(=O)NS(=O)(=O)c4ccc(N[C@H](CCN5CCOCC5)CSc5ccccc5)c(S(=O)(=O)C(F)(F)F)c4)cc3)CC2)C1 [Navitoclax] (partner 0.5 µM)
Procedure, shortened: as §1

[2] = compound: O=c1[nH]cc(F)c(=O)[nH]1 [5-Fluorouracil] + COc1cc2c(Oc3ccc(NC(=O)C4(C(=O)Nc5ccc(F)cc5)CC4)cc3F)ccnc2cc1OCCCN1CCOCC1 [Foretinib] (partner 0.25 µM)
Procedure, shortened: as §1

[3] = compound: O=c1[nH]cc(F)c(=O)[nH]1 [5-Fluorouracil] + Cc1nc(NC(=O)N2CCC[C@H]2C(N)=O)sc1-c1ccnc(C(C)(C)C(F)(F)F)c1 [Alpelisib] (partner 2 µM)
Procedure, shortened: as §1

In the case of NCI-H2009, the relative viability (Sulindac + Linsitinib; first compound 0.08 µM) is reported as 1.22, the relative viability (Sulindac + Linsitinib; first compound 0.253 µM) is reported as 1.3 and the relative viability (Sulindac + Linsitinib; first compound 0.8 µM) is reported as 1.05. It also gave a relative viability (Sulindac + Linsitinib; first compound 2.53 µM) of 1.13, a relative viability (Sulindac + Linsitinib; first compound 8 µM) of 1.23 and a relative viability ([1]; first compound 0.005 µM) of 0.42. The relative viability ([1]; first compound 0.01581 µM) was 0.38, the relative viability ([1]; first compound 0.05 µM) was 0.189 and the relative viability ([1]; first compound 0.1581 µM) was 0.19. The relative viability ([1]; first compound 0.5 µM) was 0.0825, the relative viability ([2]; first compound 0.02 µM) was 1.31 and the relative viability ([2]; first compound 0.2 µM) was 1.27. It also gave a relative viability ([2]; first compound 0.6325 µM) of 1.12, a relative viability ([2]; first compound 2 µM) of 0.669 and a relative viability ([3]; first compound 0.02 µM) of 1.17. For the same cell line, the relative viability ([3]; first compound 0.2 µM) was 1.15, the relative viability ([3]; first compound 0.6325 µM) was 0.937 and the relative viability ([3]; first compound 2 µM) was 0.607.
LK-2 was tested, and the relative viability (Sulindac + Linsitinib; first compound 0.08 µM) was 0.464, the relative viability (Sulindac + Linsitinib; first compound 0.253 µM) was 0.376 and the relative viability (Sulindac + Linsitinib; first compound 0.8 µM) was 0.532. For the same cell line, the relative viability (Sulindac + Linsitinib; first compound 2.53 µM) was 0.417, the relative viability (Sulindac + Linsitinib; first compound 8 µM) was 0.577 and the relative viability ([1]; first compound 0.005 µM) was 0.965. It also gave a relative viability ([1]; first compound 0.01581 µM) of 0.54, a relative viability ([1]; first compound 0.05 µM) of 0.456 and a relative viability ([1]; first compound 0.1581 µM) of 0.109. For the same cell line, the relative viability ([1]; first compound 0.5 µM) was 0.0967, the relative viability ([2]; first compound 0.02 µM) was 1.6 and the relative viability ([2]; first compound 0.2 µM) was 1.02. The relative viability ([2]; first compound 0.6325 µM) was 1.13, the relative viability ([2]; first compound 2 µM) was 0.568 and the relative viability ([3]; first compound 0.02 µM) was 1.3. The relative viability ([3]; first compound 0.2 µM) was 0.606, the relative viability ([3]; first compound 0.6325 µM) was 0.803 and the relative viability ([3]; first compound 2 µM) was 0.578.
Work on HCC-78 yielded a relative viability (Sulindac + Linsitinib; first compound 0.08 µM) of 0.521, a relative viability (Sulindac + Linsitinib; first compound 0.253 µM) of 0.493 and a relative viability (Sulindac + Linsitinib; first compound 0.8 µM) of 0.439. The relative viability (Sulindac + Linsitinib; first compound 2.53 µM) was 0.454, the relative viability (Sulindac + Linsitinib; first compound 8 µM) was 0.501 and the relative viability ([1]; first compound 0.005 µM) was 0.711. It also gave a relative viability ([1]; first compound 0.01581 µM) of 0.563, a relative viability ([1]; first compound 0.05 µM) of 0.553 and a relative viability ([1]; first compound 0.1581 µM) of 0.358. For the same cell line, the relative viability ([1]; first compound 0.5 µM) was 0.206, the relative viability ([2]; first compound 0.02 µM) was 0.548 and the relative viability ([2]; first compound 0.2 µM) was 0.527. For the same cell line, the relative viability ([2]; first compound 0.6325 µM) was 0.459, the relative viability ([2]; first compound 2 µM) was 0.325 and the relative viability ([3]; first compound 0.02 µM) was 0.242. It also gave a relative viability ([3]; first compound 0.2 µM) of 0.281 and a relative viability ([3]; first compound 0.6325 µM) of 0.235.
For NCI-H3122, the relative viability (Sulindac + Linsitinib; first compound 0.08 µM) was 1.07, the relative viability (Sulindac + Linsitinib; first compound 0.253 µM) was 1.01 and the relative viability (Sulindac + Linsitinib; first compound 0.8 µM) was 0.928. The relative viability (Sulindac + Linsitinib; first compound 2.53 µM) was 1.07, the relative viability (Sulindac + Linsitinib; first compound 8 µM) was 1.07 and the relative viability ([1]; first compound 0.005 µM) was 1.04. The relative viability ([1]; first compound 0.01581 µM) was 0.46, the relative viability ([1]; first compound 0.05 µM) was 0.993 and the relative viability ([1]; first compound 0.1581 µM) was 0.672. For the same cell line, the relative viability ([1]; first compound 0.5 µM) was 0.223, the relative viability ([2]; first compound 0.02 µM) was 0.956 and the relative viability ([2]; first compound 0.2 µM) was 0.721. It also gave a relative viability ([2]; first compound 0.6325 µM) of 0.363, a relative viability ([2]; first compound 2 µM) of 0.218 and a relative viability ([3]; first compound 0.02 µM) of 0.796. For the same cell line, the relative viability ([3]; first compound 0.2 µM) was 0.653, the relative viability ([3]; first compound 0.6325 µM) was 0.371 and the relative viability ([3]; first compound 2 µM) was 0.246.
Cell Line HOP-62 has a relative viability (Sulindac + Linsitinib; first compound 0.08 µM) of 0.858, a relative viability (Sulindac + Linsitinib; first compound 0.253 µM) of 0.937 and a relative viability (Sulindac + Linsitinib; first compound 0.8 µM) of 1.14. For the same cell line, the relative viability (Sulindac + Linsitinib; first compound 2.53 µM) was 1.03, the relative viability (Sulindac + Linsitinib; first compound 8 µM) was 1.16 and the relative viability ([1]; first compound 0.005 µM) was 0.957. The relative viability ([1]; first compound 0.01581 µM) was 0.528, the relative viability ([1]; first compound 0.05 µM) was 0.152 and the relative viability ([1]; first compound 0.1581 µM) was 0.121. It also gave a relative viability ([1]; first compound 0.5 µM) of 0.104, a relative viability ([2]; first compound 0.02 µM) of 1.14 and a relative viability ([2]; first compound 0.2 µM) of 1.12. It also gave a relative viability ([2]; first compound 0.6325 µM) of 1.22, a relative viability ([2]; first compound 2 µM) of 0.95 and a relative viability ([3]; first compound 0.02 µM) of 0.835. It also gave a relative viability ([3]; first compound 0.2 µM) of 1.03, a relative viability ([3]; first compound 0.6325 µM) of 0.844 and a relative viability ([3]; first compound 2 µM) of 0.754.
For NCI-H727, the relative viability (Sulindac + Linsitinib; first compound 0.08 µM) was 0.29, the relative viability (Sulindac + Linsitinib; first compound 0.253 µM) was 0.224 and the relative viability (Sulindac + Linsitinib; first compound 0.8 µM) was 0.27. It also gave a relative viability (Sulindac + Linsitinib; first compound 2.53 µM) of 0.243, a relative viability (Sulindac + Linsitinib; first compound 8 µM) of 0.34 and a relative viability ([1]; first compound 0.005 µM) of 0.285. It also gave a relative viability ([1]; first compound 0.01581 µM) of 0.251, a relative viability ([1]; first compound 0.05 µM) of 0.265 and a relative viability ([1]; first compound 0.1581 µM) of 0.193. The relative viability ([1]; first compound 0.5 µM) was 0.18, the relative viability ([2]; first compound 0.02 µM) was 0.791 and the relative viability ([2]; first compound 0.2 µM) was 0.79. For the same cell line, the relative viability ([2]; first compound 0.6325 µM) was 0.903, the relative viability ([2]; first compound 2 µM) was 0.656 and the relative viability ([3]; first compound 0.02 µM) was 0.545. It also gave a relative viability ([3]; first compound 0.2 µM) of 0.582, a relative viability ([3]; first compound 0.6325 µM) of 0.641 and a relative viability ([3]; first compound 2 µM) of 0.577.
BEN showed a relative viability (Sulindac + Linsitinib; first compound 0.08 µM) of 1.02, a relative viability (Sulindac + Linsitinib; first compound 0.253 µM) of 0.892 and a relative viability (Sulindac + Linsitinib; first compound 0.8 µM) of 0.571. For the same cell line, the relative viability (Sulindac + Linsitinib; first compound 2.53 µM) was 0.967, the relative viability (Sulindac + Linsitinib; first compound 8 µM) was 1.07 and the relative viability ([1]; first compound 0.005 µM) was 0.0665. For the same cell line, the relative viability ([1]; first compound 0.01581 µM) was 0.0904, the relative viability ([1]; first compound 0.05 µM) was 0.0865 and the relative viability ([1]; first compound 0.1581 µM) was 0.0456. For the same cell line, the relative viability ([1]; first compound 0.5 µM) was 0.042, the relative viability ([2]; first compound 0.02 µM) was 0.63 and the relative viability ([2]; first compound 0.2 µM) was 0.609. The relative viability ([2]; first compound 0.6325 µM) was 0.548, the relative viability ([2]; first compound 2 µM) was 0.587 and the relative viability ([3]; first compound 0.02 µM) was 0.987. The relative viability ([3]; first compound 0.2 µM) was 0.873, the relative viability ([3]; first compound 0.6325 µM) was 0.657 and the relative viability ([3]; first compound 2 µM) was 0.692.
Work on NCI-H460 yielded a relative viability (Sulindac + Linsitinib; first compound 0.08 µM) of 1.13, a relative viability (Sulindac + Linsitinib; first compound 0.253 µM) of 0.79 and a relative viability (Sulindac + Linsitinib; first compound 2.53 µM) of 0.988. For the same cell line, the relative viability (Sulindac + Linsitinib; first compound 8 µM) was 1.15, the relative viability ([1]; first compound 0.005 µM) was 0.949 and the relative viability ([1]; first compound 0.01581 µM) was 0.87. The relative viability ([1]; first compound 0.05 µM) was 0.232, the relative viability ([1]; first compound 0.1581 µM) was 0.0102 and the relative viability ([1]; first compound 0.5 µM) was 0.0078. The relative viability ([2]; first compound 0.02 µM) was 1.02, the relative viability ([2]; first compound 0.2 µM) was 0.73 and the relative viability ([2]; first compound 0.6325 µM) was 0.156. The relative viability ([2]; first compound 2 µM) was 0.0731, the relative viability ([3]; first compound 0.02 µM) was 0.389 and the relative viability ([3]; first compound 0.2 µM) was 0.345. The relative viability ([3]; first compound 0.6325 µM) was 0.136 and the relative viability ([3]; first compound 2 µM) was 0.0626.
Work on SK-MES-1 yielded a relative viability (Sulindac + Linsitinib; first compound 0.08 µM) of 1.11, a relative viability (Sulindac + Linsitinib; first compound 0.253 µM) of 1.22 and a relative viability (Sulindac + Linsitinib; first compound 0.8 µM) of 0.809. It also gave a relative viability (Sulindac + Linsitinib; first compound 2.53 µM) of 1.08, a relative viability (Sulindac + Linsitinib; first compound 8 µM) of 1.18 and a relative viability ([1]; first compound 0.005 µM) of 0.925. It also gave a relative viability ([1]; first compound 0.01581 µM) of 0.329, a relative viability ([1]; first compound 0.05 µM) of 0.28 and a relative viability ([1]; first compound 0.1581 µM) of 0.173. It also gave a relative viability ([1]; first compound 0.5 µM) of 0.134, a relative viability ([2]; first compound 0.02 µM) of 0.872 and a relative viability ([2]; first compound 0.2 µM) of 0.946. The relative viability ([2]; first compound 0.6325 µM) was 0.45, the relative viability ([2]; first compound 2 µM) was 0.358 and the relative viability ([3]; first compound 0.02 µM) was 0.798. For the same cell line, the relative viability ([3]; first compound 0.2 µM) was 0.789, the relative viability ([3]; first compound 0.6325 µM) was 0.447 and the relative viability ([3]; first compound 2 µM) was 0.341.
